Assay results reported in publication PMC11601558, “SLC6A19 inhibition facilitates urinary neutral amino acid excretion and lowers plasma phenylalanine” (JCI Insight, 2024).
“And” between values parts separate entries of the source, which are not always exact repeats. Equal entries are not always repeated. Where two headings read alike, the source gives them in different places.

Biological target: T1, human SLC6A19 (Homo sapiens, UniProt Q695T7)
T1 construct: expressed in transfected cells
T1 sequence (Q695T7 1-634): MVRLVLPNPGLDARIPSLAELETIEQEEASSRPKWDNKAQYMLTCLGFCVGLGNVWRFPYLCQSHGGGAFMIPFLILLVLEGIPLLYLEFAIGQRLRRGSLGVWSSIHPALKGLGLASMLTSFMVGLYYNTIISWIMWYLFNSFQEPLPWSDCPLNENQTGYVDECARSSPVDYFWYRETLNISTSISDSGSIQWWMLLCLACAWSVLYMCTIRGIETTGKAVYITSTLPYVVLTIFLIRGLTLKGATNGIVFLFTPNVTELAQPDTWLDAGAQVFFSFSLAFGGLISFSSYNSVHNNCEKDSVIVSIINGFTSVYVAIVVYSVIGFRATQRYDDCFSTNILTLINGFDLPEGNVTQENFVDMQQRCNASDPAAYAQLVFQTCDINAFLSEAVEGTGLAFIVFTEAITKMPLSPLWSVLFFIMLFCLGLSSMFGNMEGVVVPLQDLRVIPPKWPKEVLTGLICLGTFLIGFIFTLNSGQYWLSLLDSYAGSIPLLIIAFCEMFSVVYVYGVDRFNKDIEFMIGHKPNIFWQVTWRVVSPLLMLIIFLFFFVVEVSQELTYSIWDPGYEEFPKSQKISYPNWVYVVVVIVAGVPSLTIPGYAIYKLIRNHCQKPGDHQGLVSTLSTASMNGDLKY
T1 sequence (Q9HBJ8 15-222 partner): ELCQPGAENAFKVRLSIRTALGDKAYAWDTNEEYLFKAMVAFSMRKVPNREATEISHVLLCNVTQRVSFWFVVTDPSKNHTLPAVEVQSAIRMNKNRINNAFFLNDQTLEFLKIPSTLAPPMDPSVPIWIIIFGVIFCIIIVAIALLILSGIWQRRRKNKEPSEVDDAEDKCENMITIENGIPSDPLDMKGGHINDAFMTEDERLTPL
Assay: Isoleucine transport assay, Flp-In T-REx 293 cells coexpressing human SLC6A19 and TMEM27
Type: cell-based
Settings: for isoleucine transport, Human (Fig 1c curve point) / isoleucine transport, Human (Fig 1f curve point): technical replicates
Protocol: Flp-In T-REx 293 cells (Thermo Fisher Scientific) were engineered to coexpress C-terminally V5-tagged human or mouse SLC6A19 under the control of a tetracycline-inducible promoter and human or mouse myc-DDK-tagged TMEM27 under the control of a constitutively active promoter. Cells were maintained in DMEM/F12 medium supplemented with 10% FBS, 100 units/mL penicillin, 100 μg/mL streptomycin, 200 μg/mL hygromycin, 10 μg/mL blasticidin, and 300 μg/mL geneticin (all from Thermo Fisher Scientific) at 37°C and 5% CO2.
Flp-In T-REx 293 cells stably coexpressing human or mouse SLC6A19 and TMEM27 were plated in 384-well plates in the presence of 1 μg/mL tetracyclin (Sigma-Aldrich) to induce the expression of SLC6A19. After 24 hours, cells were washed with live cell imaging solution (LCIS, Thermo Fisher Scientific) before JN-170 or JNT-517 were added to cells in 10-point concentration response curves in 0.5% DMSO in Krebs buffer (140 mM NaCl, 4.7 mM KCl, 2.5 mM CaCl2, 1.2 mM MgCl2, 11 mM HEPES, 10 mM glucose, pH 7.4). Cells were incubated with compounds for 1 hour at room temperature before 1 mM ^13C6,^15N1-labeled L-isoleucine (Cambridge Isotope Laboratories) was added as a transport substrate. After 20 minutes incubation at room temperature, cells were washed and lysed in H2O with 15 μM internal standard D-Leucine-D10 (CDN Isotopes) for 1–2 hours. A standard curve of ^13C6,^15N1-L-isoleucine was added to each plate following cell lysis. Plates were centrifuged at 3,700g to remove cell debris, and supernatant was diluted in 2 steps to a final 1:10 dilution in acetonitrile/0.1% formic acid. Sample desalting was performed on a high throughput RapidFire-365 (Agilent) using a hydrophilic interaction liquid chromatography (HILIC) column. A quantitative time-of-flight (Q-ToF) mass spectrometer (Agilent) was used to detect analytes. Agilent MassHunter quantitative analysis for time of flight was used as the integration software for measuring area under the peak for both ^13C6,^15N1-L-isoleucine and D-Leucine-D10 internal standard.
IC50 values for transport inhibition in cells overexpressing SLC6A19 and TMEM27 were calculated using a 4-parameter logistic regression in Collaborative Drug Discovery (CDD). Reported IC50 values are geometric means of 4–6 independent experiments. For postmortem intestinal transport assays, single outliers of quadruplicate replicates were excluded from the calculation if a signal value’s distance to the mean exceeded 35% of the signal average. The IC50 values of individual experiments were calculated with a 3- or 4-parameter logistic regression using GraphPad Prism 9. The reported IC50 value represents the geometric mean of n = 5 experiments from 3 individual donors. Statistical comparison of urinary Phe excretion in Pah^enu2 mice treated with vehicle or JN-170 was conducted using 1-way analysis of variance (ANOVA) with Tukey’s post hoc comparison. Statistical analysis of baseline-adjusted plasma Phe in mice treated with vehicle or JN-170 was determined by 2-way ANOVA with Dunnett’s post hoc comparison. All statistical analyses were performed using GraphPad Prism 9. For clinical studies, group sizes were not determined based on statistical power calculations. Statistical significance of pharmacodynamic results was not assessed. Values are reported as mean (urinary Phe excretion, T1/2, Cl/F), geometric mean (Cmax/D, AUC0-inf/D), or median (Tmax).

Question: For NC(=O)N1CCC[C@@H](N(C(=O)NCc2ccc(OC(F)(F)F)cc2F)C2CC2)C1 [JNT-517], which “isoleucine transport, Human (Fig 1c curve point)” value (0.000722 uM) is on record?
Answer: The value was 89.9 and 94.8.

Question: And the “isoleucine transport, Human (Fig 1c curve point)” value (0.00219 uM)?
Answer: Its value is 91.3 and 95.5.

Question: What about the “isoleucine transport, Human (Fig 1c curve point)” value (0.00438 uM) of the same compound?
Answer: Its value is 79.4 and 85.4.

Question: What about the “isoleucine transport, Human (Fig 1c curve point)” value (0.0153125 uM) of the same compound?
Answer: Its value is 71.2 and 80.7.

Question: What about the “isoleucine transport, Human (Fig 1c curve point)” value (0.048125 uM) of the same compound?
Answer: Its value is 33.9 and 45.4.

Question: And the “isoleucine transport, Human (Fig 1c curve point)” value (0.144375 uM)?
Answer: Its value is 25.9 and 24.

Question: And the “isoleucine transport, Human (Fig 1c curve point)” value (0.4375 uM)?
Answer: Its value is 12.2 and 4.05.

Question: And the “isoleucine transport, Human (Fig 1c curve point)” value (1.3125 uM)?
Answer: The value was -3.01 and -3.67.

Question: What about the “isoleucine transport, Human (Fig 1c curve point)” value (3.9375 uM) of the same compound?
Answer: Its value is -3.2 and -3.39.

Question: And the “isoleucine transport, Human (Fig 1c curve point)” value (11.8125 uM)?
Answer: The value was -9.74 and -5.08.

Question: What about the IC50 (geometric mean n = 4, 95% CI 38–57 nM, read-out: potency (IC50) against human SLC6A19, isoleucine transport assay) of the same compound?
Answer: The IC50 was 47 nM.

Question: How did the “fold less potent against human SLC6A19 than mouse SLC6A19” value turn out when N#Cc1ccc(-c2noc([C@]3(C(F)(F)F)CCN(C(=O)NCCC4(N)CC4)C3)n2)cc1 [JN-170] was run?
Answer: The value was over 10 fold.

Question: What about the “isoleucine transport, Human (Fig 1f curve point)” value (0.000722 uM) of the same compound?
Answer: The value was 84.3 and 86.8.

Question: What about the “isoleucine transport, Human (Fig 1f curve point)” value (0.00219 uM) of the same compound?
Answer: Its value is 72.6 and 89.2.

Question: And the “isoleucine transport, Human (Fig 1f curve point)” value (0.00438 uM)?
Answer: The value was 81.4 and 98.3.

Question: And the “isoleucine transport, Human (Fig 1f curve point)” value (0.015313 uM)?
Answer: Its value is 84.4 and 88.8.

Question: What about the “isoleucine transport, Human (Fig 1f curve point)” value (0.048125 uM) of the same compound?
Answer: The value was 85.9 and 72.3.

Question: And the “isoleucine transport, Human (Fig 1f curve point)” value (0.144375 uM)?
Answer: Its value is 64.5 and 70.3.

Question: And the “isoleucine transport, Human (Fig 1f curve point)” value (0.4375 uM)?
Answer: Its value is 40 and 54.4.

Question: And the “isoleucine transport, Human (Fig 1f curve point)” value (1.3125 uM)?
Answer: Its value is 41.1 and 23.8.

Question: And the “isoleucine transport, Human (Fig 1f curve point)” value (3.9375 uM)?
Answer: Its value is 21 and 4.32.

Question: What about the “isoleucine transport, Human (Fig 1f curve point)” value (11.8125 uM) of the same compound?
Answer: Its value is 2.26 and -9.71.

Question: What about the IC50 (geometric mean n = 6, 95% CI 0.68–2.82 μM, read-out: IC50 against human SLC6A19, isoleucine transport assay) of the same compound?
Answer: Its IC50 is 1250 nM.
